This test deals with Polyunsaturated fatty acid 5-lipoxygenase (Cavia porcellus). The experiment in a line: Inhibitory activity against partially-purified Guinea pig PMN 5-lipoxygenase.

For orientation: IC50 means the concentration needed to halve the response being measured. Lower therefore signals greater potency in that assay. The compound `Cc1ccnc(N2CCN(CCc3c(C)n4c5c(cc(O)cc35)CCC4)CC2)c1` [2-Methyl-1-{2-[4-(4-methyl-pyridin-2-yl)-piperazin-1-yl]-ethyl}-5,6-dihydro-4H-pyrrolo[3,2,1-ij]quinolin-8-ol] registered an IC50 of 2.8 µM.
